# Assay results taken from EPA's ToxRefDB 2.
# Legend:
# dog [1] = settings: Chronic toxicity, beagle, Oral, Gavage/Intubation, dose end: 272 day, group: systemic
# rat [2] = settings: Prenatal developmental toxicity study, Oral, Gavage/Intubation, dose end: 21 GD
# dog [3] = settings: Subchronic oral toxicity in nonrodent, beagle, Gavage/Intubation, dose end: 94 day, group: systemic
# rat [4] = settings: Sub-acute repeat dose toxicity; sprague dawley; Oral; Gavage/Intubation; dose end: 5 day; group: systemic; systemic / clinical chemistry / aspartate aminotransferase (ast/sgot) / aspartate aminotransferase (ast/sgot) + systemic / in life …
# rat [5] = settings: Subchronic oral toxicity in rodents, sprague dawley, Gavage/Intubation, dose end: 93 day, group: systemic
# rabbit [6] = settings: Sub-acute repeat dose toxicity, new zealand white, Oral, Gavage/Intubation, dose end: 5 day, group: systemic
# rat [7] = settings: Fertility (Segment I), Oral, Gavage/Intubation, dose end: 1 generation
# rat [8] = settings: Sub-acute repeat dose toxicity; Oral; Gavage/Intubation; dose end: 36 day; group: systemic; systemic / in life observation / body weight / body weight + systemic / in life observation / food consumption / food consumption
# rat [9] = settings: Chronic toxicity; sprague dawley; Oral; Gavage/Intubation; dose end: 182 day; group: systemic; systemic / clinical chemistry / [other] / [other] + systemic / clinical chemistry / cholesterol / cholesterol + systemic / clinical …
# dog [10] = settings: Sub-acute repeat dose toxicity, beagle, Oral, Gavage/Intubation, dose end: 22 day, group: systemic
# rat [11] = settings: Sub-acute repeat dose toxicity, sprague dawley, Oral, Gavage/Intubation, dose end: 15 day, group: systemic
# rat [12] = settings: Prenatal developmental toxicity study, Oral, Gavage/Intubation, dose end: 18 GD
# rat [13] = settings: Sub-acute repeat dose toxicity, sprague dawley, Oral, Gavage/Intubation, dose end: 15 day, group: systemic; remark: listed apart in the source
# rabbit [14] = settings: Prenatal developmental toxicity study, Oral, Gavage/Intubation, dose end: 20 GD, group: maternal
# rabbit [15] = settings: Prenatal developmental toxicity study, Oral, Gavage/Intubation, dose end: 20 GD, group: maternal; remark: listed apart in the source
# [16] = systemic / clinical chemistry / alkaline phosphatase (alp/alk) / alkaline phosphatase (alp/alk) + systemic / in life observation / clinical …
# [17] = group: developmental, systemic / in life observation / body weight / fetal weight
# [18] = group: maternal, systemic / in life observation / body weight / body weight gain + systemic / in life observation / food consumption / food consumption + …
# [19] = systemic / organ weight / liver / absolute
# [20] = systemic / organ weight / liver / absolute + systemic / clinical chemistry / [other] / [other] + systemic / clinical chemistry / alkaline …
# [21] = systemic / in life observation / body weight / body weight gain + systemic / clinical chemistry / [other] / [other] + systemic / clinical …
# [22] = systemic / in life observation / body weight / body weight + systemic / in life observation / clinical signs / altered breathing rate + …
# [23] = group: maternal, reproductive / reproductive performance / estrous cycle / corpora lutea + reproductive / reproductive performance / implantations / …
# [24] = group: parental, systemic / in life observation / body weight / body weight + systemic / in life observation / body weight / body weight gain + systemic / in…
# [25] = systemic / clinical chemistry / [other] / [other] + systemic / clinical chemistry / cytochrome p450, nos / cytochrome p450, nos + systemic…
# [26] = systemic / in life observation / body weight / body weight + systemic / in life observation / clinical signs / alopecia + systemic / in life…
# [27] = group: maternal, systemic / in life observation / body weight / body weight gain + systemic / in life observation / clinical signs / alopecia + systemic / in…
# [28] = systemic / in life observation / body weight / body weight gain + systemic / in life observation / food consumption / food consumption + …
# [29] = systemic / in life observation / clinical signs / altered breathing rate + systemic / in life observation / clinical signs / convulsions + …
# [30] = systemic / in life observation / mortality / mortality + systemic / in life observation / body weight / body weight gain + systemic / in …
smiles,measurement,setting,value
COc1ccc(OC(F)(F)F)cc1CN[C@H]1CCCN[C@H]1c1ccccc1,LOAEL,dog [1]; [16],> 20 mg/kg/day
same,NOAEL,dog [1]; [16],≥ 20 mg/kg/day
same,LEL,dog [1]; systemic / in life observation / clinical signs / salivation,6 mg/kg/day
same,LEL,rat [2]; [17],100 mg/kg/day
same,LOAEL,rat [2]; [17],> 100 mg/kg/day
same,NOAEL,rat [2]; [17],≥ 100 mg/kg/day
same,LEL,rat [2]; [18],30 mg/kg/day
same,LOAEL,rat [2]; [18],> 100 mg/kg/day
same,NEL,rat [2]; [18],10 mg/kg/day
same,NOAEL,rat [2]; [18],≥ 100 mg/kg/day
same,LEL,dog [3]; [19],1 mg/kg/day
same,NEL,dog [3]; [19],< 1 mg/kg/day
same,LOAEL,dog [3]; [20],> 20 mg/kg/day
same,NOAEL,dog [3]; [20],≥ 20 mg/kg/day
same,LEL,rat [4],400 mg/kg/day
same,LOAEL,rat [4],> 1000 mg/kg/day
same,NEL,rat [4],< 400 mg/kg/day
same,NOAEL,rat [4],≥ 1000 mg/kg/day
same,LEL,rat [5]; systemic / clinical chemistry / 5' nucleotidase / 5' nucleotidase + systemic / clinical chemistry / aspartate aminotransferase (ast/sgot) / …,30 mg/kg/day
same,LOAEL,rat [5]; [21],> 150 mg/kg/day
same,NOAEL,rat [5]; [21],≥ 150 mg/kg/day
same,LOAEL,rabbit [6]; [22],> 200 mg/kg/day
same,NEL,rabbit [6]; [22],20 mg/kg/day
same,NOAEL,rabbit [6]; [22],≥ 200 mg/kg/day
same,LEL,rabbit [6]; systemic / in life observation / body weight / body weight + systemic / in life observation / food consumption / food consumption,100 mg/kg/day
same,LEL,rat [7]; [23],150 mg/kg/day
same,LOAEL,rat [7]; [23],> 150 mg/kg/day
same,NEL,rat [7]; [23],50 mg/kg/day
same,NOAEL,rat [7]; [23],≥ 150 mg/kg/day
same,LOAEL,rat [7]; [24],> 150 mg/kg/day
same,NEL,rat [7]; [24],5 mg/kg/day
same,NOAEL,rat [7]; [24],≥ 150 mg/kg/day
same,LEL,"rat [7]; group: parental, systemic / in life observation / body weight / body weight gain + systemic / in life observation / clinical signs / alopecia + systemic / in…",50 mg/kg/day
same,LEL,rat [8],50 mg/kg/day
same,LOAEL,rat [8],> 50 mg/kg/day
same,NEL,rat [8],20 mg/kg/day
same,NOAEL,rat [8],≥ 50 mg/kg/day
same,LEL,rat [9],30 mg/kg/day
same,LOAEL,rat [9],> 100 mg/kg/day
same,NEL,rat [9],5 mg/kg/day
same,NOAEL,rat [9],≥ 100 mg/kg/day
same,LEL,dog [10]; systemic / clinical chemistry / alkaline phosphatase (alp/alk) / alkaline phosphatase (alp/alk),10 mg/kg/day
same,LOAEL,dog [10]; [16],> 30 mg/kg/day
same,NOAEL,dog [10]; [16],≥ 30 mg/kg/day
same,LEL,rat [11]; [25],50 mg/kg/day
same,NEL,rat [11]; [25],10 mg/kg/day
same,LOAEL,rat [11]; [26],> 400 mg/kg/day
same,NOAEL,rat [11]; [26],≥ 400 mg/kg/day
same,LEL,rat [12]; [17],150 mg/kg/day
same,LOAEL,rat [12]; [17],> 150 mg/kg/day
same,NOAEL,rat [12]; [17],≥ 150 mg/kg/day
same,LEL,rat [12]; [27],75 mg/kg/day
same,LOAEL,rat [12]; [27],> 150 mg/kg/day
same,NEL,rat [12]; [27],15 mg/kg/day
same,NOAEL,rat [12]; [27],≥ 150 mg/kg/day
same,LEL,rat [13]; [25],100 mg/kg/day
same,NEL,rat [13]; [25],< 100 mg/kg/day
same,LOAEL,rat [13]; [28],> 200 mg/kg/day
same,NOAEL,rat [13]; [28],≥ 200 mg/kg/day
same,LOAEL,rabbit [14]; [29],> 75 mg/kg/day
same,NEL,rabbit [14]; [29],25 mg/kg/day
same,NOAEL,rabbit [14]; [29],≥ 75 mg/kg/day
same,LEL,rabbit [14]; systemic / in life observation / food consumption / food consumption,50 mg/kg/day
same,LEL,rabbit [15]; systemic / in life observation / mortality / mortality,15 mg/kg/day
same,LOAEL,rabbit [15]; [30],> 50 mg/kg/day
same,NEL,rabbit [15]; [30],5 mg/kg/day
same,NOAEL,rabbit [15]; [30],≥ 50 mg/kg/day
